Results published in patent US10112899B2 (ViiV HEALTHCARE UK LIMITED, priority 2014, dated 2018).

System: HIV in the HTLV-1 transformed cell line MT-4
Experiment: organism not typed
Type: cell-based
Conditions: MT4, 96 h, MT-4 cells; luciferase/cell titer glo readout after 96 hours; 10 point dose response

Structure (SMILES)	IC50 [nM]
Cc1c(-c2c(C)c3c(c(C)c2[C@H](OC(C)(C)C)C(=O)O)CN(C(=O)CC(C)(C)C)C3)cc(F)c2c1CCCO2 (atropisomer, axis not shown; (M)) [Example 104, (S)-2-(tert-butoxy)-2-((M)-2-(3,3-dimethylbutanoyl)-6-(8-fluoro-5-methylchroman-6-yl)-4,7-dimethylisoindolin-5-yl)acetic acid]	2
Cc1c(-c2c(C)c3c(c(C)c2[C@H](OC(C)(C)C)C(=O)O)CN(C(=O)C2CCCCC2)C3)cc(F)c2c1CCCO2 (atropisomer, axis not shown; (M)) [Example 137, (S)-2-(tert-butoxy)-2-((M)-2-(cyclohexanecarbonyl)-6-(8-fluoro-5-methylchroman-6-yl)-4,7-dimethylisoindolin-5-yl)acetic acid]	2
Cc1ccc(-c2c(C)c3c(c(C)c2[C@H](OC(C)(C)C)C(=O)O)CN(C(=O)c2cccc4c2OCO4)C3)cc1 [Example 275, (S)-2-(2-(benzo[d][1,3]dioxole-4-carbonyl)-4,7-dimethyl-6-(p-tolyl)isoindolin-5-yl)-2-(tert-butoxy)acetic acid]	5
Cc1c(-c2c(C)c3c(c(C)c2[C@H](OC(C)(C)C)C(=O)O)CN(C(=O)c2ccc(F)c(Cl)c2)C3)cc(F)c2c1CCCO2 (atropisomer, axis not shown; (M)) [Example 171, (S)-2-(tert-butoxy)-2-((M)-2-(3-chloro-4-fluorobenzoyl)-6-(8-fluoro-5-methylchroman-6-yl)-4,7-dimethylisoindolin-5-yl)acetic acid]	2
Cc1ccc(-c2c(C)c3c(c(C)c2[C@H](OC(C)(C)C)C(=O)O)CN(C(=O)N2CC[C@H](F)C2)C3)cc1 [Example 294, (S)-2-(tert-butoxy)-2-(2-((S)-3-fluoropyrrolidine-1-carbonyl)-4,7-dimethyl-6-(p-tolyl)isoindolin-5-yl)acetic acid]	4
Cc1c(-c2c(C)c3c(c(C)c2[C@H](OC(C)(C)C)C(=O)O)CN(C(=O)c2cccc4sccc24)C3)cc(F)c2c1CCCO2 (atropisomer, axis not shown; (M)) [Example 151, (S)-2-((M)-2-(benzo[b]thiophene-4-carbonyl)-6-(8-fluoro-5-methylchroman-6-yl)-4,7-dimethylisoindolin-5-yl)-2-(tert-butoxy)acetic acid]	5
Cc1ccc(-c2c(C)c3c(c(C)c2[C@H](OC(C)(C)C)C(=O)O)CN(C(=O)C2CC4(CCC4)C2)C3)cc1 [Example 118, (S)-2-(tert-butoxy)-2-(4,7-dimethyl-2-(spiro[3.3]heptane-2-carbonyl)-6-(p-tolyl)isoindolin-5-yl)acetic acid]	14
Cc1c(-c2c(C)c3c(c(C)c2[C@H](OC(C)(C)C)C(=O)O)CN(C(=O)c2cccc(F)c2)C3)cc(F)c2c1NCCO2 (atropisomer, axis not shown; (M)) [Example 301, (S)-2-(tert-butoxy)-2-(6-((M)-8-fluoro-5-methyl-3,4-dihydro-2H-benzo[b][1,4]oxazin-6-yl)-2-(3-fluorobenzoyl)-4,7-dimethylisoindolin-5-yl)acetic acid]	5
Cc1ccc(-c2c(C)c3c(c(C)c2[C@H](OC(C)(C)C)C(=O)O)CN(C(=O)N2CCS(=O)(=O)CC2)C3)cc1 [Example 64, (2S)-2-(tert-butoxy)-2-[2-(1,1-dioxo-1λ^6,4-thiomorpholine-4-carbonyl)-4,7-dimethyl-6-(4-methylphenyl)-2,3-dihydro-1H-isoindol-5-yl]acetic acid]	106
Cc1ccc(-c2c(C)c3c(c(C)c2[C@H](OC(C)(C)C)C(=O)O)CN(C(=O)CC2CCCCC2)C3)cc1 [Example 117, (S)-2-(tert-butoxy)-2-(2-(2-cyclohexylacetyl)-4,7-dimethyl-6-(p-tolyl)isoindolin-5-yl)acetic acid]	17
Cc1ccc(-c2c(C)c3c(c(C)c2[C@H](OC(C)(C)C)C(=O)O)CN(C(=O)c2cc(F)ccc2C)C3)cc1 [Example 121, (S)-2-(tert-butoxy)-2-(2-(5-fluoro-2-methylbenzoyl)-4,7-dimethyl-6-(p-tolyl)isoindolin-5-yl)acetic acid]	4
Cc1ccc(-c2c(C)c3c(c(C)c2[C@H](OC(C)(C)C)C(=O)O)CN(C(=O)N2CC4CCCC4C2)C3)cc1 (stereo partly drawn) [Example 82, (2S)-2-(tert-butoxy)-2-(4,7-dimethyl-2-(octahydrocyclopenta[c]pyrrole-2-carbonyl)-6-(p-tolyl)isoindolin-5-yl)acetic acid]	14
Cc1c2c(c(C)c([C@H](OC(C)(C)C)C(=O)O)c1-c1ccc3c(c1)CCCO3)CN(C(=O)N1CCCCC1)C2 [Example 317, (S)-2-(tert-butoxy)-2-(6-(chroman-6-yl)-4,7-dimethyl-2-(piperidine-1-carbonyl)isoindolin-5-yl)acetic acid]	3
Cc1ccc(-c2c(C)c3c(c(C)c2[C@H](OC(C)(C)C)C(=O)O)CN(C(=O)N2CCC2)C3)cc1 [Example 61, (2S)-2-[2-(azetidine-1-carbonyl)-4,7-dimethyl-6-(4-methylphenyl)-2,3-dihydro-1H-isoindol-5-yl]-2-(tert-butoxy)acetic acid]	38
Cc1c(-c2c(C)c3c(c(C)c2[C@H](OC(C)(C)C)C(=O)O)CN(C(=O)c2ccc4c(cnn4C)c2)C3)cc(F)c2c1CCCO2 (atropisomer, axis not shown; (M)) [Example 154, (S)-2-(tert-butoxy)-2-((M)-6-(8-fluoro-5-methylchroman-6-yl)-4,7-dimethyl-2-(1-methyl-1H-indazole-5-carbonyl)isoindolin-5-yl)acetic acid]	8
Cc1ccc(-c2c(C)c3c(c(C)c2[C@H](OC(C)(C)C)C(=O)O)CN(Cc2cccc(C(F)(F)F)c2)C3)cc1 [Example 28, (S)-2-(tert-butoxy)-2-(4,7-dimethyl-6-(p-tolyl)-2-(3-(trifluoromethyl)benzyl)isoindolin-5-yl)acetic acid]	94
Cc1ccc(-c2c(C)c3c(c(C)c2[C@H](OC(C)(C)C)C(=O)O)CN(C(=O)c2ccc4c(c2)OCO4)C3)cc1 [Example 265, (S)-2-(2-(benzo[d][1,3]dioxole-5-carbonyl)-4,7-dimethyl-6-(p-tolyl)isoindolin-5-yl)-2-(tert-butoxy)acetic acid]	4
Cc1ccc(-c2c(C)c3c(c(C)c2[C@H](OC(C)(C)C)C(=O)O)CN(C(=O)c2ccc(F)cc2F)C3)cc1 [Example 247, (S)-2-(tert-butoxy)-2-(2-(2,4-difluorobenzol)-4,7-dimethyl-6-(p-tolyl)isoindolin-5-yl)acetic acid]	5
Cc1ccc(-c2c(C)c3c(c(C)c2C(OC(C)(C)C)C(=O)O)CN(C(=O)OCc2ccccc2)C3)cc1 (centres unmarked) [Example 17, 2-(2-((Benzyloxy)carbonyl)-4,7-dimethyl-6-(p-tolyl)isoindolin-5-yl)-2-(tert-butoxy)acetic acid]	1280
COc1cccc(C(=O)N2Cc3c(C)c(-c4ccc(C)cc4)c([C@H](OC(C)(C)C)C(=O)O)c(C)c3C2)c1F [Example 253, (S)-2-(tert-butoxy)-2-(2-(2-fluoro-3-methoxybenzoyl)-4,7-dimethyl-6-(p-tolyl)isoindolin-5-yl)acetic acid]	12
Cc1c(-c2c(C)c3c(c(C)c2[C@H](OC(C)(C)C)C(=O)O)CN(Cc2cccc4c2OCO4)C3)cc(F)c2c1CCCO2 (atropisomer, axis not shown; (M)) [Example 216, (S)-2-((M)-2-(benzo[d][1,3]dioxol-4-ylmethyl)-6-(8-fluoro-5-methylchroman-6-yl)-4,7-dimethylisoindolin-5-yl)-2-(tert-butoxy)acetic acid]	4
Cc1ccc(-c2c(C)c3c(c(C)c2[C@H](OC(C)(C)C)C(=O)O)CN(S(=O)(=O)NC(C)C)C3)cc1 [Example 51, (2S)-2-(tert-butoxy)-2-[4,7-dimethyl-6-(4-methylphenyl)-2-[(propan-2-yl)sulfamoyl]-2,3-dihydro-1H-isoindol-5-yl]acetic acid]	44
Cc1ccc(-c2c(C)c3c(c(C)c2[C@H](OC(C)(C)C)C(=O)O)CN(Cc2nc(C)c[nH]2)C3)cc1 [Example 23, (S)-2-(tert-butoxy)-2-(4,7-dimethyl-2-((4-methyl-1H-imidazol-2-yl)methyl)-6-(p-tolyl)isoindolin-5-yl)acetic acid]	203
Cc1ccc(-c2c(C)c3c(c(C)c2[C@H](OC(C)(C)C)C(=O)O)CN(CCc2ccccc2)C3)cc1 [Example 39, (2S)-2-(tert-butoxy)-2-[4,7-dimethyl-6-(4-methylphenyl)-2-(2-phenylethyl)-2,3-dihydro-1H-isoindol-5-yl]acetic acid]	872
Cc1ccc(-c2c(C)c3c(c(C)c2[C@H](OC(C)(C)C)C(=O)O)CN(C(=O)c2cccnc2C)C3)cc1 [Example 259, (S)-2-(tert-butoxy)-2-(4,7-dimethyl-2-(2-methylnicotinoyl)-6-(p-tolyl)isoindolin-5-yl)acetic acid]	20
Cc1ccc(-c2c(C)c3c(c(C)c2[C@H](OC(C)(C)C)C(=O)O)CN(C(=O)c2cccc(C(C)(C)C)c2)C3)cc1 [Example 230, (S)-2-(tert-butoxy)-2-(2-(3-(tert-butyl)benzoyl)-4,7-dimethyl-6-(p-tolyl)isoindolin-5-yl)acetic acid]	111
Cc1ccc(Cl)cc1C(=O)N1Cc2c(C)c(-c3cc(F)c4c(c3C)CCCO4)c([C@H](OC(C)(C)C)C(=O)O)c(C)c2C1 (atropisomer, axis not shown; (M)) [Example 185, (S)-2-(tert-butoxy)-2-((M)-2-(5-chloro-2-methylbenzoyl)-6-(8-fluoro-5-methylchroman-6-yl)-4,7-dimethylisoindolin-5-yl)acetic acid]	4
Cc1ccc(-c2c(C)c3c(c(C)c2[C@H](OC(C)(C)C)C(=O)O)CN(Cc2cccc(F)c2)C3)cc1 [Example 22, (S)-2-(tert-butoxy)-2-(2-(3-fluorobenzyl)-4,7-dimethyl-6-(p-tolyl)isoindolin-5-yl)acetic acid]	20
Cc1ccc(-c2c(C)c3c(c(C)c2[C@H](OC(C)(C)C)C(=O)O)CN(C(=O)c2cccc4c2OCCO4)C3)cc1 [Example 105, (S)-2-(tert-butoxy)-2-(2-(2,3-dihydrobenzo[b][1,4]dioxine-5-carbonyl)-4,7-dimethyl-6-(p-tolyl)isoindolin-5-yl)acetic acid]	14
